Data: PubChem BioAssay (NCI)
“And” between values parts separate entries of the source, which are not always exact repeats. Equal entries are not always repeated.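 Abbreviation: GI50, concentration required for 50% inhibition of growth. At the TGI there is no net growth.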

Legend:
Assay in all cases: growth of human tumour cells (NCI), 384-well format
NCI-H226 lung = test system: NCI-H226 lung
NCI-H23 lung = test system: NCI-H23 lung
NCI-H322M lung = test system: NCI-H322M lung
NCI-H460 NSCLC = test system: NCI-H460 NSCLC
NCI-H522 lung = test system: NCI-H522 lung
NCI/ADR-RES ovarian = test system: NCI/ADR-RES ovarian
OVCAR-3 ovarian = test system: OVCAR-3 ovarian
OVCAR-4 ovarian = test system: OVCAR-4 ovarian
OVCAR-5 ovarian = test system: OVCAR-5 ovarian
OVCAR-8 ovarian = test system: OVCAR-8 ovarian
PC-3 prostate = test system: PC-3 prostate
RPMI-8226 leukemia = test system: RPMI-8226 leukemia
RXF 393 renal = test system: RXF 393 renal
SF-268 CNS = test system: SF-268 CNS
SF-295 CNS = test system: SF-295 CNS
SF-539 CNS = test system: SF-539 CNS
SK-MEL-28 melanoma = test system: SK-MEL-28 melanoma
SK-MEL-5 melanoma = test system: SK-MEL-5 melanoma
SK-OV-3 ovarian = test system: SK-OV-3 ovarian
SN12C renal = test system: SN12C renal
SNB-19 CNS = test system: SNB-19 CNS
SNB-75 CNS = test system: SNB-75 CNS
SW-620 colon = test system: SW-620 colon
T-47D breast = test system: T-47D breast
TK-10 renal = test system: TK-10 renal
U251 glioblastoma = test system: U251 glioblastoma
UACC-257 melanoma = test system: UACC-257 melanoma
UACC-62 melanoma = test system: UACC-62 melanoma
UO-31 renal = test system: UO-31 renal

CNC(=O)c1ccc(Nc2ncc(C(F)(F)F)c(NCc3nccnc3N(C)S(C)(=O)=O)n2)cc1
GI50 (NCI-H226 lung): 2.05 µM
TGI (NCI-H226 lung): 11.9 µM and 7.96 µM
GI50 (NCI-H23 lung): 1.59 µM and 1.74 µM
TGI (NCI-H23 lung): 3.17 µM and 3.43 µM
GI50 (NCI-H322M lung): 2.04 µM and 2.2 µM
TGI (NCI-H322M lung): 5.32 µM and 6 µM
GI50 (NCI-H460 NSCLC): 1.47 µM and 1.67 µM
TGI (NCI-H460 NSCLC): 3.13 µM and 3.37 µM
GI50 (NCI-H522 lung): 1.94 µM and 2.47 µM
TGI (NCI-H522 lung): 3.63 µM and 4.42 µM
GI50 (NCI/ADR-RES ovarian): 13.5 µM and 16 µM
TGI (NCI/ADR-RES ovarian): 40.5 µM and 35.5 µM
GI50 (OVCAR-3 ovarian): 1.42 µM and 1.98 µM
TGI (OVCAR-3 ovarian): 3.94 µM and 4.84 µM
GI50 (OVCAR-4 ovarian): 2.31 µM and 3.19 µM
TGI (OVCAR-4 ovarian): 10.2 µM and 14.1 µM
GI50 (OVCAR-5 ovarian): 2.14 µM and 2.41 µM
TGI (OVCAR-5 ovarian): 6.77 µM and 7.25 µM
GI50 (OVCAR-8 ovarian): 2.73 µM and 3.01 µM
TGI (OVCAR-8 ovarian): 7.71 µM and 8.76 µM
GI50 (PC-3 prostate): 2.11 µM and 3.35 µM
TGI (PC-3 prostate): 6.15 µM and 10.7 µM
GI50 (RPMI-8226 leukemia): 1.81 µM and 2.26 µM
TGI (RPMI-8226 leukemia): 3.21 µM and 3.75 µM
GI50 (RXF 393 renal): 1.15 µM and 1.17 µM
TGI (RXF 393 renal): 2.71 µM and 2.73 µM
GI50 (SF-268 CNS): 1.03 µM and 0.681 µM
TGI (SF-268 CNS): 2.35 µM and 2.26 µM
GI50 (SF-295 CNS): 2.72 µM and 2.75 µM
TGI (SF-295 CNS): 9.23 µM and 8.16 µM
GI50 (SF-539 CNS): 1.55 µM and 1.95 µM
TGI (SF-539 CNS): 3.29 µM and 3.85 µM
GI50 (SK-MEL-28 melanoma): 1.78 µM and 2.34 µM
TGI (SK-MEL-28 melanoma): 3.65 µM and 4.72 µM
GI50 (SK-MEL-5 melanoma): 1.34 µM and 1.25 µM
TGI (SK-MEL-5 melanoma): 2.69 µM and 2.64 µM
GI50 (SK-OV-3 ovarian): 1.31 µM and 1.77 µM
TGI (SK-OV-3 ovarian): 5.3 µM and 9.75 µM
GI50 (SN12C renal): 1.94 µM and 2.36 µM
TGI (SN12C renal): 4.12 µM and 4.97 µM
GI50 (SNB-19 CNS): 3.05 µM and 3.92 µM
TGI (SNB-19 CNS): 13.3 µM and 12.4 µM
GI50 (SNB-75 CNS): 1.28 µM and 1.78 µM
TGI (SNB-75 CNS): 3.69 µM and 4.75 µM
GI50 (SW-620 colon): 2.02 µM and 2.46 µM
TGI (SW-620 colon): 4.39 µM and 5.13 µM
GI50 (T-47D breast): 2.5 µM and 2.67 µM
TGI (T-47D breast): 6.9 µM and 7.18 µM
GI50 (TK-10 renal): 1.77 µM and 2.24 µM
TGI (TK-10 renal): 5.22 µM and 6.82 µM
GI50 (U251 glioblastoma): 2.17 µM and 2.96 µM
TGI (U251 glioblastoma): 7.56 µM and 10.2 µM
GI50 (UACC-257 melanoma): 2.06 µM and 2.93 µM
TGI (UACC-257 melanoma): 5.32 µM and 8.36 µM
GI50 (UACC-62 melanoma): 1.19 µM and 1.4 µM
TGI (UACC-62 melanoma): 2.49 µM and 2.81 µM
GI50 (UO-31 renal): 1.82 µM and 1.98 µM
TGI (UO-31 renal): 4.84 µM and 4.75 µM
